Earlier results as cited in patent US20080241292A1, “COMPOSITION AND METHOD FOR WEIGHT LOSS” (IOMEDIX DEVELOPMENT INTERNATIONAL SRL, priority 2006, published 2008).
Ends that are not written are not given here.

B1: Cholecystokinin (peptide, UniProt P06307 21-115, looked up)
Cholecystokinin: QPVPPADPAGSGLQRAEEAPRRQLRVSQRTDGESRAHLGALLARYIQQARKAPSGRMSIVKNLQNLDPSHRISDRDYMGWMDFGRRSAEEYEYPS
modifications: Cholecystokinin
notes: satiety signal peptide secreted from intestinal cells in response to nutrients

Legend:
[1] = humans
[2] = exogenous administration to humans

| Molecule | satiety [1] | food intake [2] |
| --- | --- | --- |
| Glucagon-like peptide-1 (HAEGTFTSDVSSYLEGQAAKEFIAWLVKGR; ends and bridges not checked; UniProt P01275 98-127, looked up) [GLP-1, satiety signal peptide] | increase satiety |  |
| B1 |  | reduction in food intake |
